1 compound from publication PMC8633584, “Patient mutations in human ATP:cob(I)alamin adenosyltransferase differentially affect its catalytic versus chaperone functions” (The Journal of Biological Chemistry, 2021) can be followed below.

Residue numbers refer to the chain shown, from its start. “And” between values parts separate entries of the source, which are not always exact repeats. Equal entries are not always repeated.

The target in assay [1] is T1, R190H ATR (Homo sapiens, UniProt Q96EY8, R190H).
T1 construct: The expression construct for recombinant human full-length and ΔN18 ATR in a pET-28b vector; His-tag (thrombin-cleavable) (N, cleaved yes); made in house; host or cells: E. coli BL21 (DE3)
T1 sequence (Q96EY8 38-250 R190H limits assumed): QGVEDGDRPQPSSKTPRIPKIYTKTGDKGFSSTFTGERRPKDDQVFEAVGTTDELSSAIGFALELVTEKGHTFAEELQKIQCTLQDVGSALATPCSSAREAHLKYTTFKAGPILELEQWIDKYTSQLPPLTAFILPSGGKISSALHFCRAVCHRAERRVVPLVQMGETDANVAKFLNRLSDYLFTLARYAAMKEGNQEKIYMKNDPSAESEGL
In words: Cob(II)alamin binding to ATR, UV-visible titration. The settings on record: 1 mM ATP, anaerobic, buffer A. On the procedure:
(§1) Cob(II)alamin binding to ATR was determined by the titrations performed in the anaerobic chamber (<0.2 ppm O2 levels). The increasing concentrations of WT or mutant ATR were added to 30 μM cob(II)alamin and 1 mM ATP in buffer A. The concentration of bound cob(II)alamin was determined using Δε474nm = 5.1 cm^−1 mM^−1. The change in absorbance at 464 nm, corresponding to the base-off ATR-bound cob(II)alamin was plotted against ATR concentration, and the data were analyzed using Equation 1, as described above.

Assay [2] addresses T2, E193K ATR (Homo sapiens, UniProt Q96EY8, E193K).
T2 sequence (Q96EY8 38-250 E193K limits assumed): T1 sequence (Q96EY8 38-250 R190H limits assumed) with H153R, E156K
Description: EPR spectroscopy of cob(II)alamin with ATR and ATP. Type of assay: binding. Set-up: WT and the R190C variants of ΔN18-ATR and full-length E193K ATR were purified; His-tag (thrombin-cleavable) (N, cleaved yes); made in house; host or cells: E. coli BL21 (DE3). The settings on record: E193K ATR 500 μM trimer, cob(II)alamin 300 μM, 5 mM ATP, 100 K. On the procedure:
(§2) EPR spectra were recorded on a Bruker EMX 300 equipped with a Bruker 4201 cavity and a Varian liquid nitrogen cryostat. The temperature was controlled by an Oxford Instruments ITC4 temperature controller. The samples were prepared inside an anaerobic chamber (O2 < 0.3 ppm) and contained 300 μM cob(II)alamin, 5 mM ATP and WT ATR (200 μM trimer) or 500 μM (trimer) E193K, R190C or R190H ATR in 50 mM Hepes pH 7.5, 150 mM KCl, 2 mM MgCl2, 2 mM TCEP, and 10% glycerol. The following instrument settings were employed: microwave frequency, 9.27 GHz; power, 2.0 mW; modulation amplitude, 1.0 mT; modulation frequency, 100 kHz; temperature, 100 K. Five scans were acquired for each sample. A buffer spectrum was subtracted from the sample spectrum. The EPR simulations were performed using the EasySpin program ([36]).

Assay [3] concerns the target T2, E193K ATR. In words: Cob(II)alamin binding, separation of unbound ligand with 10 kDa cut-off filter. Also noted: WT and the R190C variants of ΔN18-ATR and full-length E193K ATR were purified; His-tag (thrombin-cleavable) (N, cleaved yes); made in house; host or cells: E. coli BL21 (DE3). On the procedure: Although we were unable to determine the KM for cob(II)alamin because of technical limitations of the steady-state assay, the KD for this substrate was determined. In the presence of ATP, cob(II)alamin binds to ATR in a four-coordinate base-off conformation ([17]), which is signaled by a blue shift in the absorption maximum from 474 to 464 nm and an increase in absorption intensity (Fig. 2C). […] In contrast, spectral changes in cob(II)alamin were not observed with E193K ATR (Fig. 2D), indicating either greatly weakened affinity or the presence of bound five-coordinate cob(II)alamin. […] Although some cob(II)alamin (18 μM) was present in the filtrate, the remainder was bound to ATR (Fig. 2D).

The target of assay [4] is T3, R190C ATR (Homo sapiens, UniProt Q96EY8, R190C).
T3 sequence (Q96EY8 38-250 R190C limits assumed): T1 sequence (Q96EY8 38-250 R190H limits assumed) with H153C
Description: EPR spectroscopy of cob(II)alamin with ATR and ATP. Type of assay: binding. The settings on record: R190C ATR 500 μM trimer, cob(II)alamin 300 μM, 5 mM ATP, 100 K. Set-up: The expression construct for recombinant human full-length and ΔN18 ATR in a pET-28b vector; His-tag (thrombin-cleavable) (N, cleaved yes); made in house; host or cells: E. coli BL21 (DE3). On the procedure: as §2

The target of assay [5] is T3, R190C ATR. In words: Cob(II)alamin binding to ATR, UV-visible titration. Also noted: The expression construct for recombinant human full-length and ΔN18 ATR in a pET-28b vector; His-tag (thrombin-cleavable) (N, cleaved yes); made in house; host or cells: E. coli BL21 (DE3). The settings on record: 1 mM ATP, anaerobic, buffer A. On the procedure: as §1
A further assay deals with T4, WT ATR (Homo sapiens, UniProt Q96EY8).
T4 sequence (Q96EY8 38-250 limits assumed): T1 sequence (Q96EY8 38-250 R190H limits assumed) with H153R
In words: Cob(II)alamin binding to ATR, UV-visible titration. The following applies: 1 mM ATP, anaerobic, buffer A. Also noted: The expression construct for recombinant human full-length and ΔN18 ATR in a pET-28b vector; His-tag (thrombin-cleavable) (N, cleaved yes); made in house; host or cells: E. coli BL21 (DE3). On the procedure: as §1

Assay [6] deals with T1, R190H ATR. In words: EPR spectroscopy of cob(II)alamin with ATR and ATP. Type of assay: binding. The following applies: R190H ATR 500 μM trimer, cob(II)alamin 300 μM, 5 mM ATP, 100 K. On the procedure: as §2

The Kd is the equilibrium constant for the complex coming apart. On to `C/C1=C2/[N-][C@H]([C@H](CC(N)=O)[C@@]2(C)CCC(=O)NC[C@@H](C)OP(=O)([O-])O[C@H]2[C@@H](O)[C@@H](n3cnc4cc(C)c(C)cc43)O[C@@H]2CO)[C@]2(C)N=C(/C(C)=C3N=C(/C=C4N=C1[C@@H](CCC(N)=O)C\4(C)C)[C@@H](CCC(N)=O)[C@]\3(C)CC(N)=O)[C@@H](CCC(N)=O)[C@]2(C)CC(N)=O.[Co+2]` [cob(II)alamin], for which the values for the Kd at R190H ATR [1], at R190C ATR [5] and on WT ATR were 38.5 ± 16.5 µM, 46 ± 10 µM and 0.08 ± 0.01 µM, respectively. For the same compound, on E193K ATR [2], the “five-coordinate base-off cob(II)alamin, share of EPR spectrum” value is 76% and ~80%. Besides, the “free base-on cob(II)alamin, share of EPR spectrum” value at E193K ATR [2] was 24% and 20%. In addition, the “cob(II)alamin in the filtrate (unbound)” value at E193K ATR [3] (E193K ATR 1.5 mM) stood at 18%. In addition, the “cob(II)alamin present in the filtrate (unbound)” value on E193K ATR [3] (cob(II)alamin 100 μM, E193K ATR 500 μM trimer, ATP 2 mM) amounted to 18 µM. Further, the “four-coordinate base-off cob(II)alamin, share of EPR spectrum” value at R190C ATR [4] and on R190H ATR [6] was 75% each time. Moreover, the “unbound five-coordinate base-on cob(II)alamin, share of EPR spectrum” value at R190C ATR [4] and on R190H ATR [6] was 25% throughout.
